These results are taken from ChEMBL document CHEMBL3232957, “Some non-conventional biomolecular targets for diamidines. A short survey” (Bioorg Med Chem, 2014).

Assay [1] concerns Mus musculus. Briefly: Neuroprotective activity in Swiss mouse focal cerebral injury model assessed as reduction of ibotenate-induced lesion size in gray matter at 4 ug/kg. The format is functional. Further details: scale not given: the % may be the effect or the level left.
In assay [2] the test system is Mus musculus. Briefly: Neuroprotective activity in Swiss mouse focal cerebral injury model assessed as reduction of ibotenate-induced lesion size in white matter at 4 ug/kg. Further details: scale not given: the % may be the effect or the level left. The format is functional.
The nature of assay [3]: Antiproliferative activity against human C8146A cells assessed as growth inhibition. In kind it is functional, cell-based.
The target of assay [4] is Glutamate [NMDA] receptor. Put plainly: Antagonist activity at NMDA receptor (unknown origin). Further details: species or system Homo sapiens.
Assay [5] is described as follows: Binding affinity to r(CUG)6 (unknown origin) assessed as inhibition of RNA-MBNL1 interaction by quantitative TR-FRET assay.
Assay [6] is filed under the species Homo sapiens. Put plainly: Inhibition of human KIR2.X channel assessed as remaining outward current at 0.2 uM; values are per cent of control.
For assay [7], the species on record is Homo sapiens. Put plainly: Inhibition of human KIR2.X channel assessed as remaining inward current at 0.2 uM; values are per cent of control.
The nature of assay [8]: Inhibition of mouse hippocampal neurons ASIC transfected in CHO cells assessed as inhibition of acid-evoked current at -60 mV holding potential by two-electrode voltage-clamp electrophysiology assay. The format is cell-based. A general note: Two-electrode voltage clamp holds a large cell at a set potential and records current.
In assay [9] the target is Glutamate NMDA receptor; GRIN1/GRIN2A (Homo sapiens, UniProt Q05586+Q12879). Put plainly: Antagonist activity at NR1/NR2A receptor (unknown origin) expressed in Xenopus laevis oocytes assessed as inhibition of glutamate/glycine-induced current at pH 7.6 at -40mV holding potential by two-electrode voltage-clamp electrophysiology. In kind it is cell-based.
Chain of Glutamate NMDA receptor; GRIN1/GRIN2A (Q12879 whole entry, other chains not shown): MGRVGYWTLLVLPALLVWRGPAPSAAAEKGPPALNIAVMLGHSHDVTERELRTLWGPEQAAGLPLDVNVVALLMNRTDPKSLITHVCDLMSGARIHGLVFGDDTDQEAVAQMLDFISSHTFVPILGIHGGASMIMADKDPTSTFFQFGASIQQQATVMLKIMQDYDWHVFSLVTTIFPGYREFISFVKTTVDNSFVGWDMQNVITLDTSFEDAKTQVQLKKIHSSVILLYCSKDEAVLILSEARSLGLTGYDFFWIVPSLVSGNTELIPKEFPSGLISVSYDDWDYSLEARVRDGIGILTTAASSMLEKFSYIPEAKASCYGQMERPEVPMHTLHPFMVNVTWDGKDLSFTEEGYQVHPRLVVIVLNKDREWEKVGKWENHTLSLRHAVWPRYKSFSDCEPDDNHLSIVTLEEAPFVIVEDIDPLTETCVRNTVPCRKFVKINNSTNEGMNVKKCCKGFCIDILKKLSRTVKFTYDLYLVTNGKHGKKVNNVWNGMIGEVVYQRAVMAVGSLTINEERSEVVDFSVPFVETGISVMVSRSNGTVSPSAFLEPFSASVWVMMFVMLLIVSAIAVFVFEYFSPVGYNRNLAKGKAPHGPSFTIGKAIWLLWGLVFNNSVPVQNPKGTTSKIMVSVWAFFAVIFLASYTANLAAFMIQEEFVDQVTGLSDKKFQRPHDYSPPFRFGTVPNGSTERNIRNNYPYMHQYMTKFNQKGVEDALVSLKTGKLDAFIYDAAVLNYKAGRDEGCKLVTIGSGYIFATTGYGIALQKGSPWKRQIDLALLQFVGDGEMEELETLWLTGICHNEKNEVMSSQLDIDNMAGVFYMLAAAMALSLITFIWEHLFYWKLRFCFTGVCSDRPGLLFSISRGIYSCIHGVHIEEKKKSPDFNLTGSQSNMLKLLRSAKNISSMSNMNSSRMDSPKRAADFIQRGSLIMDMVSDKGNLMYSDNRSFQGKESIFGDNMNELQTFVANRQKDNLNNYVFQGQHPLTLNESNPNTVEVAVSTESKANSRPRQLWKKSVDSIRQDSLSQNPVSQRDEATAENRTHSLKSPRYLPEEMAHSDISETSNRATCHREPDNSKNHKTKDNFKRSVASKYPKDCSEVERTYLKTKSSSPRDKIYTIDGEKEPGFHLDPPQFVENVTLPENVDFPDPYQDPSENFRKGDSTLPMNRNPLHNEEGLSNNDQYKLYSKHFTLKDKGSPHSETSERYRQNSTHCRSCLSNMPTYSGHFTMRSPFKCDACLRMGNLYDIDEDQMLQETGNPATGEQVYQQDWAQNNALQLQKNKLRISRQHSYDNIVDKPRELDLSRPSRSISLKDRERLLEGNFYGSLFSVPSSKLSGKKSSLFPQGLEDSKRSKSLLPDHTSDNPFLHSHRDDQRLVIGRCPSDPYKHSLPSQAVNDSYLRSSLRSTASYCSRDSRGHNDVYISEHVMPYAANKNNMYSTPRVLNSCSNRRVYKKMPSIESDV
The nature of assay [10]: Inhibition of mouse polyamine oxidase assessed as conversion of N-acetylspermine to […].
In assay [11] the target is Diamine acetyltransferase 1 (Homo sapiens, UniProt P21673). Put plainly: Inhibition of human SSAT using spermidine as substrate.
Chain of Diamine acetyltransferase 1 (P21673 whole entry): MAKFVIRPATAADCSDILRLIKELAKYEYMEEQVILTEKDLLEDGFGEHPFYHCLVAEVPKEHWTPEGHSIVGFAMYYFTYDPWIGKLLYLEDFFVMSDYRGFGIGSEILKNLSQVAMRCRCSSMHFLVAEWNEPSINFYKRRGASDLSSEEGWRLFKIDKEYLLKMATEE
For assay [12], the target named is T1, Diamine oxidase [copper-containing] (Homo sapiens, UniProt P19801).
T1 sequence (P19801 whole entry): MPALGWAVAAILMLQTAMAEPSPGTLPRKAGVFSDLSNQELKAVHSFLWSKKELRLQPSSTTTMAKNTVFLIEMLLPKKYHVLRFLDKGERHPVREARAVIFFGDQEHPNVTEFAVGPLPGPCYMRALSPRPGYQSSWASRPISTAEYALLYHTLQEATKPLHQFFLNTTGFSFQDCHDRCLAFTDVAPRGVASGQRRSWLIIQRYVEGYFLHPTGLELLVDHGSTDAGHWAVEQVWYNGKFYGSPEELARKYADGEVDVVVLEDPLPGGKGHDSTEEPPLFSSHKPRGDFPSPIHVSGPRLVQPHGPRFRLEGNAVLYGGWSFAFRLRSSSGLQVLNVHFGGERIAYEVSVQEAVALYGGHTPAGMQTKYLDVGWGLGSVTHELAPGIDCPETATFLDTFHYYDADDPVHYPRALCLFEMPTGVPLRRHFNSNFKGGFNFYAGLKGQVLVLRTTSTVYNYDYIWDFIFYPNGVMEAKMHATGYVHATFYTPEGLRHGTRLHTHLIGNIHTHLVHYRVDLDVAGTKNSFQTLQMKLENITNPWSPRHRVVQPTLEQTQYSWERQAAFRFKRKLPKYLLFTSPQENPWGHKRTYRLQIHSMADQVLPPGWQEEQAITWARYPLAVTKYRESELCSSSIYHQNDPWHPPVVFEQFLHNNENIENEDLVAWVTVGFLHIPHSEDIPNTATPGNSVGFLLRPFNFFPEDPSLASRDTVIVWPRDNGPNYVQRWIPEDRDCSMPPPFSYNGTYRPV
Put plainly: Mixed type inhibition of recombinant human DAO expressed in drosophila S2 cells. The format is cell-based.

In assay [13] the target is T2, Acid-sensing ion channel 2 (Mus musculus) (UniProt Q925H0).
T2 sequence (whole entry): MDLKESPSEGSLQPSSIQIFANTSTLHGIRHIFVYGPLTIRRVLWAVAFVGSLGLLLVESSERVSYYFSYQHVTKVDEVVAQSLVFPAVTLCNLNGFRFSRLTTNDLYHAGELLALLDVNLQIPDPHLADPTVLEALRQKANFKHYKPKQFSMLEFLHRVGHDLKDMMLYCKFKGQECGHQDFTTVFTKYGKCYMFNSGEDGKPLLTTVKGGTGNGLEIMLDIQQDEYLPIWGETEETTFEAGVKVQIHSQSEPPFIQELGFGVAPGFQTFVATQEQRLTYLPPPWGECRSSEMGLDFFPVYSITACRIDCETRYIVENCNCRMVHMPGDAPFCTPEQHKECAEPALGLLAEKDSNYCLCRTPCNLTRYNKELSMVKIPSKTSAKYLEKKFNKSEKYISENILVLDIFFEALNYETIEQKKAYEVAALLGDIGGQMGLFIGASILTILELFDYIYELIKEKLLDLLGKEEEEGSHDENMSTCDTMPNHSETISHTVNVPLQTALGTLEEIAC
Briefly: Inhibition of mouse hippocampal neurons ASIC2a transfected in CHO cells assessed as reduction of acid-evoked current at 3 uM at -60 mV holding potential by two-electrode voltage-clamp electrophysiology assay. In kind it is cell-based.

Assay [14] deals with T3, Acid-sensing ion channel 3 (Mus musculus) (UniProt Q6X1Y6).
T3 sequence (whole entry): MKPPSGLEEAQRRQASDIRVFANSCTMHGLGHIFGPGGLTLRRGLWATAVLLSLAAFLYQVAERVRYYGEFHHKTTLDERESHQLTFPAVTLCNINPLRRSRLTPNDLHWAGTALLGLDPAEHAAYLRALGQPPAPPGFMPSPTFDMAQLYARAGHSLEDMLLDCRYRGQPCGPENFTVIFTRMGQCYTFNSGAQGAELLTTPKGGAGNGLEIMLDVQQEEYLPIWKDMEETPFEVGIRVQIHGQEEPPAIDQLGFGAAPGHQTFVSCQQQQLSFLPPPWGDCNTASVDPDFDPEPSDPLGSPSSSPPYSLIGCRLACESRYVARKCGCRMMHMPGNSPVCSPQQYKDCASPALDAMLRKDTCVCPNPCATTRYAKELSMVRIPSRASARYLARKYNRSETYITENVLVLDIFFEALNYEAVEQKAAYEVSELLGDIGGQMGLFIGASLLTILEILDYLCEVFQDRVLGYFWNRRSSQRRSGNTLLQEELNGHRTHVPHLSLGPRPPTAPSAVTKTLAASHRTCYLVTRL
Put plainly: Inhibition of mouse hippocampal neurons ASIC3 transfected in CHO cells assessed as reduction of acid-evoked current at 3 uM at -60 mV holding potential by two-electrode voltage-clamp electrophysiology assay. The format is cell-based.

Assay [15] addresses T4, Acid-sensing ion channel 1 (Mus musculus) (UniProt Q6NXK8).
T4 sequence (whole entry): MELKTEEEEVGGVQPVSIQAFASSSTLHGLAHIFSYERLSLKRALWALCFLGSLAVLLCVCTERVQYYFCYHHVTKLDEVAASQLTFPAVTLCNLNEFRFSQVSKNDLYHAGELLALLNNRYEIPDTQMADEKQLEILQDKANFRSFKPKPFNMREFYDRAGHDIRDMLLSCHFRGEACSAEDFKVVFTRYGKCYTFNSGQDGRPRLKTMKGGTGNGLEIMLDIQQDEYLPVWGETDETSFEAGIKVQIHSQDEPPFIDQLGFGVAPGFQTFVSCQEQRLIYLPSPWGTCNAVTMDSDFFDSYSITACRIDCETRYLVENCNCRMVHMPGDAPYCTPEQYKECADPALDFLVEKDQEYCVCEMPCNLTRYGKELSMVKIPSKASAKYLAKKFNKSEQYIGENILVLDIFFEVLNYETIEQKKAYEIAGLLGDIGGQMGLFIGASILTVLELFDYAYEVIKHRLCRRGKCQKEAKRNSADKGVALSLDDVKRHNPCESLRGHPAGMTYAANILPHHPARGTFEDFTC
Briefly: Inhibition of mouse hippocampal neurons ASIC1a transfected in CHO cells assessed as reduction of acid-evoked current at 3 uM at -60 mV holding potential by two-electrode voltage-clamp electrophysiology assay. The format is cell-based.

Assay [16] has as its target T4, Acid-sensing ion channel 1 (Mus musculus). Put plainly: Inhibition of mouse hippocampal neurons ASIC1b transfected in CHO cells assessed as reduction of acid-evoked current at 3 uM at -60 mV holding potential by two-electrode voltage-clamp electrophysiology assay. In kind it is cell-based.

Consider `N=C(N)c1ccc(NCCNc2ccc(C(=N)N)cc2)cc1`, for which the Activity came out at 49% in the assay on Mus musculus [1] and 69% with Mus musculus [2].

What is called IC50 is the concentration needed to halve the response being measured. `N=C(N)NC(=N)Nc1cccc(Cl)c1Cl`: in assay [3], the half-inhibitory concentration (IC50) came out at 8 µM.

Take `Cc1cc(C)c(N2C(=O)c3ccc(C(=O)Nc4cc(C(=O)O)cc(C(=O)O)c4)cc3C2=O)c(C)c1`: in [3], the IC50 is 44 µM.

Regarding `N=C(N)c1ccc(N2CCCN(c3ccc(C(=N)N)cc3)CC2)cc1`, in [4], the IC50 was 1.19 µM.

Consider `N=C(N)c1ccc(NC(=O)c2ccc(C(=O)Nc3ccc(C(=N)N)cc3)c(N)c2)cc1`, for which the IC50 in assay [5] came out at 10 µM.

For `N=C(N)c1ccc(OCCOc2cccc(N)c2)cc1`, the IC50 in assay [5] was found to be 250 µM.

For the molecule `N=C(N)NC(=N)Nc1ccc(Cl)cc1C(=O)c1ccccc1`, the IC50 in assay [3] is 12 µM.

`CC(C)(C)NC(=O)c1cccc(N2C(=O)c3ccc(C(=O)O)cc3C2=O)c1`: the IC50 in [3] was more than 100 µM.

`Cc1c(NS(=O)(=O)c2ccc(NC(=O)CCC(=O)O)cc2)c(=O)n(-c2ccccc2)n1C`: the IC50 in assay [3] was more than 100 µM.

A word on the residual activity: it is the signal under treatment as a percentage of the control signal. Regarding `N=C(Nc1ccc(OCCCCCOc2ccc(NC(=N)c3ccccc3)cc2)cc1)c1ccccc1`, the residual activity amounted to 12.1% in the assay filed under Homo sapiens [6] and 86.6% in the assay listed under Homo sapiens [7].

On to `N=C(N)c1ccc(-c2cc3ccc(C(=N)N)cc3[nH]2)cc1` [DAPI], for which, in assay [8], the IC50 worked out at 2.8 µM.

Consider `CN1CC[C@@]23CCCC[C@@H]2[C@@H]1Cc1ccc(O)cc13` [DEXTRORPHAN], for which the IC50 in assay [9] amounted to 1.3 µM.

The Ki is a measure of affinity in units of concentration, obtained from inhibition or displacement. As to `N=C(N)c1ccc(/N=N/Nc2ccc(C(=N)N)cc2)cc1` [DIMINAZENE], in [8], the IC50 came out at 0.3 µM. Besides, the Ki was found to be 120 µM in assay [10], 2.4 µM in [11] and 0.013 µM in assay [12].

Take `N=C(N)c1ccc(/C=C/c2ccc(C(=N)N)cc2O)cc1` [HYDROXYSTILBAMIDINE]: the IC50 in assay [8] was 1.5 µM.

As for `CNC1(c2ccccc2Cl)CCCCC1=O` (stereo not drawn) [KETAMINE], the IC50 in assay [9] came to 3.31 µM.

What is called inhibition is the change of the read-out against control, counted positive when it falls. As to `N=C(N)c1ccc(OCCCCCOc2ccc(C(=N)N)cc2)cc1` [PENTAMIDINE], the IC50 in [3] was 1.2 µM; in assay [5], more than 1000 µM; in assay [8], 38 µM; in assay [9], 0.72 µM. The residual activity is 10.8% in the assay filed under Homo sapiens [6] and 48.2% in the assay filed under Homo sapiens [7]. In addition, the inhibition was found to be 51% in assay [13], 74% in assay [14], 39% in [15] and 92% in [16]. Besides, the Ki is 7.6 µM in assay [10], 2 µM in assay [11] and 0.29 µM in assay [12].
